Laboratory results published in patent US5064954A, “Process for producing halomethylcarbapenems” (Shionogi & Co., Ltd., priority 1990, dated 1991).
In brackets after ≈: the same amount, converted by molar mass. Where a name gives a salt, the structure may show the parent alone.

Key:
Assay type in all cases: cell-based
S. aureus Smith = assay: MIC against S. aureus Smith; settings: Staphylococcus aureus
From the text: |MIC: μg/ml (inoculum size = 10^5 /ml) |S = S. aureus Smith

Ps. aeruginosa SR-24 = assay: MIC against Ps. aeruginosa SR-24; settings: Pseudomonas aeruginosa, SR24
From the text: |MIC: μg/ml (inoculum size = 10^5 /ml) |P = Ps. aeruginosa SR-24

E. coli EC-14 = assay: MIC against E. coli EC-14; settings: Escherichia coli, EC14
From the text: |MIC: μg/ml (inoculum size = 10^5 /ml) |E = E. coli EC-14

[1] = Table I, S = S. aureus Smith, inoculum size = 10^5 /ml
[2] = Table I, P = Ps. aeruginosa SR-24, inoculum size = 10^5 /ml
[3] = Table I, E = E. coli EC-14, inoculum size = 10^5 /ml
[4] = Table II, S (key, unit and inoculum given only in Table I)
[5] = Table II, P (key, unit and inoculum given only in Table I)
[6] = Table II, E (key, unit and inoculum given only in Table I)
[7] = Table III, S (key, unit and inoculum given only in Table I)
[8] = Table III, P (key, unit and inoculum given only in Table I)
[9] = Table III, E (key, unit and inoculum given only in Table I)

Compound | MIC (S. aureus Smith; [1]) [µg/mL] | MIC (Ps. aeruginosa SR-24; [2]) [µg/mL] | MIC (E. coli EC-14; [3]) [µg/mL] | also measured
CC(O)[C@H]1C(=O)N2C(C(=O)[O-])=C(C[n+]3ccsc3)[C@H](C)[C@H]12 (stereo partly drawn) [Table I No. 1] | 0.025 (≈ 0.0811 µM) | 3.13 (≈ 10.2 µM) | 0.1 (≈ 0.324 µM) | –
CC(O)[C@H]1C(=O)N2C(C(=O)[O-])=C(C[n+]3ccsc3N)[C@H](C)[C@H]12 (stereo partly drawn) [Table I No. 2] | 0.0125 (≈ 0.0387 µM) | 6.25 (≈ 19.3 µM) | 0.78 (≈ 2.41 µM) | –
CC(O)[C@H]1C(=O)N2C(C(=O)[O-])=C(C[n+]3ccccc3)[C@H](C)[C@H]12 (stereo partly drawn) [Table I No. 3, 1β-methyl-2-pyridiniomethyl-6α-(1-hydroxyethyl)-1-carba-2-penem-4-carboxylate] | 0.0125 (≈ 0.0413 µM) | 1.56 (≈ 5.16 µM) | 0.1 (≈ 0.331 µM) | –
Cc1cccc[n+]1CC1=C(C(=O)[O-])N2C(=O)[C@H](C(C)O)[C@H]2[C@H]1C (stereo partly drawn) [Table I No. 4] | 0.025 (≈ 0.079 µM) | 3.13 (≈ 9.89 µM) | 0.2 (≈ 0.632 µM) | –
Cc1ccc[n+](CC2=C(C(=O)[O-])N3C(=O)[C@H](C(C)O)[C@H]3[C@H]2C)c1 (stereo partly drawn) [Table I No. 5] | 0.025 (≈ 0.079 µM) | 1.56 (≈ 4.93 µM) | 0.2 (≈ 0.632 µM) | –
Cc1cc[n+](CC2=C(C(=O)[O-])N3C(=O)[C@H](C(C)O)[C@H]3[C@H]2C)cc1 (stereo partly drawn) [Table I No. 6] | 0.025 (≈ 0.079 µM) | 3.13 (≈ 9.89 µM) | 0.39 (≈ 1.23 µM) | –
CCc1cc[n+](CC2=C(C(=O)[O-])N3C(=O)[C@H](C(C)O)[C@H]3[C@H]2C)cc1 (stereo partly drawn) [Table I No. 7] | 0.025 (≈ 0.0757 µM) | 3.13 (≈ 9.47 µM) | 0.39 (≈ 1.18 µM) | –
CC(O)[C@H]1C(=O)N2C(C(=O)[O-])=C(C[n+]3cccc4c3CCC4)[C@H](C)[C@H]12 (stereo partly drawn) [Table I No. 8] | 0.025 (≈ 0.073 µM) | 6.25 (≈ 18.3 µM) | 0.2 (≈ 0.584 µM) | –
CC(O)[C@H]1C(=O)N2C(C(=O)[O-])=C(C[n+]3cccc(CN)c3)[C@H](C)[C@H]12 (stereo partly drawn) [Table I No. 9] | 0.05 (≈ 0.151 µM) | 3.13 (≈ 9.45 µM) | 0.78 (≈ 2.35 µM) | –
CC(O)[C@H]1C(=O)N2C(C(=O)[O-])=C(C[n+]3ccc(CN)cc3)[C@H](C)[C@H]12 (stereo partly drawn) [Table I No. 10] | 0.05 (≈ 0.151 µM) | 3.13 (≈ 9.45 µM) | 0.78 (≈ 2.35 µM) | –
CC(O)[C@H]1C(=O)N2C(C(=O)[O-])=C(C[n+]3cccc(CNC=O)c3)[C@H](C)[C@H]12 (stereo partly drawn) [Table I No. 11] | 0.05 (≈ 0.139 µM) | 3.13 (≈ 8.71 µM) | 0.78 (≈ 2.17 µM) | –
CCC(=O)c1cc[n+](CC2=C(C(=O)[O-])N3C(=O)[C@H](C(C)O)[C@H]3[C@H]2C)cc1 (stereo partly drawn) [Table I No. 13] | 0.05 (≈ 0.14 µM) | 3.13 (≈ 8.73 µM) | 0.76 (≈ 2.12 µM) | –
CC(O)[C@H]1C(=O)N2C(C(=O)[O-])=C(C[n+]3cccc(C(N)=O)c3)[C@H](C)[C@H]12 (stereo partly drawn) [Table I No. 14] | 0.025 (≈ 0.0724 µM) | 1.56 (≈ 4.52 µM) | 0.39 (≈ 1.13 µM) | –
CC(O)[C@H]1C(=O)N2C(C(=O)[O-])=C(C[n+]3ccc(C(N)=O)cc3)[C@H](C)[C@H]12 (stereo partly drawn) [Table I No. 15] | 0.025 (≈ 0.0724 µM) | 1.56 (≈ 4.52 µM) | 0.39 (≈ 1.13 µM) | –
CC(O)[C@H]1C(=O)N2C(C(=O)[O-])=C(C[n+]3cccc(-c4cnco4)c3)[C@H](C)[C@H]12 (stereo partly drawn) [Table I No. 16] | 0.025 (≈ 0.0677 µM) | 1.56 (≈ 4.22 µM) | 0.2 (≈ 0.541 µM) | –
CC(O)[C@H]1C(=O)N2C(C(=O)[O-])=C(C[n+]3ccc(-c4ncco4)cc3)[C@H](C)[C@H]12 (stereo partly drawn) [Table I No. 17] | 0.025 (≈ 0.0677 µM) | 3.13 (≈ 8.47 µM) | 0.2 (≈ 0.541 µM) | –
CC(O)[C@H]1C(=O)N2C(C(=O)[O-])=C(C[n+]3ccc(-c4cnco4)cc3)[C@H](C)[C@H]12 (stereo partly drawn) [Table I No. 18] | 0.025 (≈ 0.0677 µM) | 6.25 (≈ 16.9 µM) | 0.39 (≈ 1.06 µM) | –
CC(O)[C@H]1C(=O)N2C(C(=O)[O-])=C(C[n+]3cccc(N)c3)[C@H](C)[C@H]12 (stereo partly drawn) [Table I No. 19] | 0.0125 (≈ 0.0394 µM) | 1.56 (≈ 4.92 µM) | 0.2 (≈ 0.63 µM) | –
CC(O)[C@H]1C(=O)N2C(C(=O)[O-])=C(C[n+]3ccc(N)cc3)[C@H](C)[C@H]12 (stereo partly drawn) [Table I No. 20] | 0.0125 (≈ 0.0394 µM) | 6.25 (≈ 19.7 µM) | 0.2 (≈ 0.63 µM) | –

Compound | MIC (S. aureus Smith; [1]) [µg/mL] | MIC (Ps. aeruginosa SR-24; [2]) [µg/mL] | MIC (E. coli EC-14; [3]) [µg/mL] | also measured
CC(O)[C@H]1C(=O)N2C(C(=O)[O-])=C(C[n+]3ccc(N)c(N)c3)[C@H](C)[C@H]12 (stereo partly drawn) [Table I No. 21] | 0.0125 (≈ 0.0376 µM) | 3.13 (≈ 9.42 µM) | 0.2 (≈ 0.602 µM) | –
CC(O)[C@H]1C(=O)N2C(C(=O)[O-])=C(C[n+]3ccc(N(C)C)cc3)[C@H](C)[C@H]12 (stereo partly drawn) [Table I No. 22] | 0.0125 (≈ 0.0362 µM) | 3.13 (≈ 9.06 µM) | 0.1 (≈ 0.29 µM) | –
CC(O)[C@H]1C(=O)N2C(C(=O)[O-])=C(C[n+]3cccc(O)c3)[C@H](C)[C@H]12 (stereo partly drawn) [Table I No. 23] | 0.05 (≈ 0.157 µM) | 12.5 (≈ 39.3 µM) | 0.2 (≈ 0.628 µM) | –
COc1ccc[n+](CC2=C(C(=O)[O-])N3C(=O)[C@H](C(C)O)[C@H]3[C@H]2C)c1 (stereo partly drawn) [Table I No. 24] | 0.025 (≈ 0.0752 µM) | 3.13 (≈ 9.42 µM) | 0.39 (≈ 1.17 µM) | –
COc1cc[n+](CC2=C(C(=O)[O-])N3C(=O)[C@H](C(C)O)[C@H]3[C@H]2C)cc1 (stereo partly drawn) [Table I No. 25] | 0.025 (≈ 0.0752 µM) | 3.13 (≈ 9.42 µM) | 0.39 (≈ 1.17 µM) | –
CSc1ccc[n+](CC2=C(C(=O)[O-])N3C(=O)[C@H](C(C)O)[C@H]3[C@H]2C)c1 (stereo partly drawn) [Table I No. 26] | 0.0125 (≈ 0.0359 µM) | 3.13 (≈ 8.98 µM) | 0.39 (≈ 1.12 µM) | –
CSc1cc[n+](CC2=C(C(=O)[O-])N3C(=O)[C@H](C(C)O)[C@H]3[C@H]2C)cc1 (stereo partly drawn) [Table I No. 27] | 0.025 (≈ 0.0718 µM) | 3.13 (≈ 8.98 µM) | 0.2 (≈ 0.574 µM) | –
CC(O)[C@H]1C(=O)N2C(C(=O)[O-])=C(C[n+]3cccc(F)c3)[C@H](C)[C@H]12 (stereo partly drawn) [Table I No. 28] | 0.025 (≈ 0.078 µM) | 3.13 (≈ 9.77 µM) | 0.39 (≈ 1.22 µM) | –
CC(O)[C@H]1C(=O)N2C(C(=O)[O-])=C(C[N+]3(C)CCCC3)[C@H](C)[C@H]12 (stereo partly drawn) [Table II No. 1] | – | – | – | MIC (S. aureus Smith; [4]): 0.025 µg/mL (≈ 0.0811 µM); MIC (Ps. aeruginosa SR-24; [5]): 3.13 µg/mL (≈ 10.1 µM); MIC (E. coli EC-14; [6]): 0.1 µg/mL (≈ 0.324 µM)
CC(O)[C@H]1C(=O)N2C(C(=O)[O-])=C(C[N+]3(CC(N)=O)CCCC3)[C@H](C)[C@H]12 (stereo partly drawn) [Table II No. 2] | – | – | – | MIC (S. aureus Smith; [4]): 0.1 µg/mL (≈ 0.285 µM); MIC (Ps. aeruginosa SR-24; [5]): 12.5 µg/mL (≈ 35.6 µM); MIC (E. coli EC-14; [6]): 0.2 µg/mL (≈ 0.569 µM)
CC(O)[C@H]1C(=O)N2C(C(=O)[O-])=C(C[N+]3(CC(=O)O)CCCC3)[C@H](C)[C@H]12 (stereo partly drawn) [Table II No. 3] | – | – | – | MIC (S. aureus Smith; [4]): 0.39 µg/mL (≈ 1.11 µM); MIC (Ps. aeruginosa SR-24; [5]): 50 µg/mL (≈ 142 µM); MIC (E. coli EC-14; [6]): 0.39 µg/mL (≈ 1.11 µM)
CC(O)[C@H]1C(=O)N2C(C(=O)[O-])=C(C[N+]3(C)CCCCC3)[C@H](C)[C@H]12 (stereo partly drawn) [Table II No. 4, 1β-methyl-2-(1-methylpiperidinio-1-yl)methyl-6α-(1-hydroxyethyl)-1-carba-2-penem-4-carboxylate] | – | – | – | MIC (S. aureus Smith; [4]): 0.025 µg/mL (≈ 0.0775 µM); MIC (Ps. aeruginosa SR-24; [5]): 3.13 µg/mL (≈ 9.71 µM); MIC (E. coli EC-14; [6]): 0.1 µg/mL (≈ 0.31 µM)
CC(O)[C@H]1C(=O)N2C(C(=O)[O-])=C(C[N+]34CCC(CC3)CC4)[C@H](C)[C@H]12 (stereo partly drawn) [Table II No. 5, 1β-methyl-2-(quinuclidinio-1-yl)-methyl-6α-(1-hydroxyethyl)-1-carba-2-penem-4-carboxylate] | – | – | – | MIC (S. aureus Smith; [4]): 0.025 µg/mL (≈ 0.0748 µM); MIC (Ps. aeruginosa SR-24; [5]): 6.25 µg/mL (≈ 18.7 µM); MIC (E. coli EC-14; [6]): 0.2 µg/mL (≈ 0.598 µM)
CC(O)[C@H]1C(=O)N2C(C(=O)[O-])=C(C[N+]34CCN(CC3)CC4)[C@H](C)[C@H]12 (stereo partly drawn) [Table II No. 6] | – | – | – | MIC (S. aureus Smith; [4]): 0.1 µg/mL (≈ 0.298 µM); MIC (Ps. aeruginosa SR-24; [5]): 6.25 µg/mL (≈ 18.6 µM); MIC (E. coli EC-14; [6]): 0.39 µg/mL (≈ 1.16 µM)
CC(O)[C@H]1C(=O)N2C(C(=O)[O-])=C(CN[n+]3ccccc3)[C@H](C)[C@H]12 (stereo partly drawn) [Table III No. 1] | – | – | – | MIC (S. aureus Smith; [7]): 0.025 µg/mL (≈ 0.0788 µM); MIC (Ps. aeruginosa SR-24; [8]): 12.5 µg/mL (≈ 39.4 µM); MIC (E. coli EC-14; [9]): 0.39 µg/mL (≈ 1.23 µM)
CC(O)[C@H]1C(=O)N2C(C(=O)O)=C(CN3CCCC3)[C@H](C)[C@H]12 (stereo partly drawn) [Table III No. 2] | – | – | – | MIC (S. aureus Smith; [7]): 0.0125 µg/mL (≈ 0.0425 µM); MIC (Ps. aeruginosa SR-24; [8]): 12.5 µg/mL (≈ 42.5 µM); MIC (E. coli EC-14; [9]): 0.39 µg/mL (≈ 1.32 µM)
CC(O)[C@H]1C(=O)N2C(C(=O)O)=C(CN3CCC(N)C3)[C@H](C)[C@H]12 (stereo partly drawn) [Table III No. 3] | – | – | – | MIC (S. aureus Smith; [7]): 0.05 µg/mL (≈ 0.162 µM); MIC (Ps. aeruginosa SR-24; [8]): 3.13 µg/mL (≈ 10.1 µM); MIC (E. coli EC-14; [9]): 0.78 µg/mL (≈ 2.52 µM)
CC(O)[C@H]1C(=O)N2C(C(=O)O)=C(CN3CCCCC3)[C@H](C)[C@H]12 (stereo partly drawn) [Table III No. 4, 1β-methyl-2-(piperidin-1-yl)methyl-6α-(1-hydroxyethyl)-1-carba-2-penem-4-carboxylic acid sodium salt] | – | – | – | MIC (S. aureus Smith; [7]): 0.0125 µg/mL; MIC (Ps. aeruginosa SR-24; [8]): 50 µg/mL; MIC (E. coli EC-14; [9]): 1.56 µg/mL
